We go through 75 compounds from ChEMBL document CHEMBL3507680, “University of Dundee, Gates Library screen for HepG2 cell viability”.

A short description of the series: Human HepG2 cell viability assay in 384 well format. Also on record: dose 125 nL, time 70.5 hour; cytotoxicity at 70.5 h: concentration not given beside the values. The following applies: HepG2 cells, read-out: Inhibition. In kind it is toxicity, cell-based.

For the compound `COc1cccc(-c2cc(C3CCCNC3)ccn2)c1` (stereo not given), the cytotoxicity at 70.5 h turned out to be 3.19%.
As to `CC(=O)N1CCC(C)(c2cc[nH]n2)CC1`, the cytotoxicity at 70.5 h was -3.17%.
Take `Cc1ccccc1CC(=O)N1C[C@@H](O)[C@H](N2CCOCC2)C1`: the cytotoxicity at 70.5 h was found to be 3.85%.
Regarding `Cc1ccccc1CC(=O)N1C[C@@H](O)[C@H](N2CCN(C)CC2)C1`, the cytotoxicity at 70.5 h was found to be 0.191%.
Consider `NC(=O)c1cnc(NCC(=O)NCc2ccccc2)c(Cl)c1`, for which the cytotoxicity at 70.5 h is -4.1%.
With `Cc1noc(CCNC(=O)c2ccc(N(C)C)c(F)c2)n1` the figure was -3.5%; with `Cc1csc(CCNC(=O)c2ccc(N(C)C)c(F)c2)n1`, 13.6%; with `OCCCN1CCCC1c1cccc(Br)c1` (stereo not given), -4.27%.
Next, `N#Cc1ccc(CS(=O)(=O)NC(=O)c2ccc(C#N)cc2)cc1`: -14.8%.
With `N#Cc1ccc(S(=O)(=O)NC(=O)c2ccc3c(c2)COC3)cc1`, the cytotoxicity at 70.5 h is -4.81%.
With `CC(C)c1nnc(NC(=O)NCc2cccnc2NCCN(C)C)s1` the figure was 4.5%.
With `NC(=O)c1cnc(NC(=O)CCc2ccco2)c(Cl)c1`, the cytotoxicity at 70.5 h was -2.14%.
With `CC(NS(=O)(=O)CCCC#N)c1cccc(-n2cccn2)c1` (stereo not given), the cytotoxicity at 70.5 h was -10.5%.
`CCc1ocnc1C(=O)N1CCN(c2nncc3ccccc23)CC1`: the cytotoxicity at 70.5 h is -19.4%.
With `O=C(C1CCOCC1)N(CCc1ccccc1)C1CCOC1` (stereo not given) the figure was 8.62%; with `Cc1n[nH]c(-c2ccc(NC(=O)C(C)N3CCN(C)CC3)cc2)n1` (stereo not given), 2.06%.
Next, `Cc1nnc(NCc2ccc(SC(F)F)cc2)o1`: 14.2%; `Cn1cc(C(NCCc2ccccn2)c2cccc(F)c2)cn1` (stereo not given): -5.84%.
With `CSc1cc2c(cc1NC(=O)N(C)Cc1ccncc1)OCCO2` the figure was -2.5%; with `Cc1occc1C(=O)NCC(=O)N1CCCC(c2ccccc2)CC1` (stereo not given), -3.67%.
As to `COc1cc(C#N)ccc1OCCN1CCC(n2ccnc2)CC1`, the cytotoxicity at 70.5 h is -7.5%.
With `Cc1nnc2n1CC(CNCc1nc(-c3ccsc3)no1)CC2` (stereo not given) the figure was -14.6%; with `O=C(CN1CCCc2sccc2C1=O)NC1CCc2nccn2C1` (stereo not given), 23.3%.
With `CN(C)c1ccc(NC(=O)CN2CCS(=O)(=O)CC2)cn1` the figure was -0.4%; with `CC(C)Oc1cccc(CC(=O)NC2CCN(CC(N)=O)CC2)c1`, -10.1%.
For the compound `Cc1nc2cc(=O)[nH]n2c(C)c1CC(=O)NC(C)C`, the cytotoxicity at 70.5 h is -7.48%.
With `Cc1cc(F)ccc1S(=O)(=O)NCc1[nH]ncc1Br` the figure was -7.73%; with `CCc1nnc2n1CC(CNCc1nc(-c3ccsc3)no1)CC2` (stereo not given), -4.57%; with `COc1cccc(COC(C)C(=O)NC2CCN(CC(N)=O)CC2)c1` (stereo not given), -7.36%.
With `Cc1ccc(S(=O)(=O)NCc2[nH]ncc2Br)cc1F` the figure was -1.86%.
Turning to `Cc1ccccc1C(C)NC(=O)Cc1c(C)nc2cc(=O)[nH]n2c1C` (stereo not given), the cytotoxicity at 70.5 h is -10.1%.
Take `Brc1cnc(NCCCOCC2CCOC2)nc1` (stereo not given): the cytotoxicity at 70.5 h is -5.54%.
On to `Brc1cnc(NCCCOC2CCOCC2)nc1`, for which the cytotoxicity at 70.5 h was -6.88%.
Regarding `N#Cc1cn(C2CC2)c(=O)n(Cc2cc(-c3cccs3)on2)c1=O`, the cytotoxicity at 70.5 h is -6.97%.
Next, `CN1CCCN(S(=O)(=O)c2cnn(C)c2)c2cc(Cl)ccc21`: -3.72%; `Cc1nnc2n1CC(CNCc1nc(-c3cccs3)no1)CC2` (stereo not given): 18.6%; `CN1CCCN(S(=O)(=O)c2cn(C)cn2)c2cc(Cl)ccc21`: -0.299%.
With `CN1CCCN(S(=O)(=O)c2cn(C)cn2)c2cc(F)ccc21`, the cytotoxicity at 70.5 h stood at 4.76%.
Regarding `CN(C)CC(C)(O)CNC(=O)Nc1sc2ccccc2c1Cl` (stereo not given), the cytotoxicity at 70.5 h was found to be 8.3%.
Next, `CCOCC(O)CNc1cncc(Br)c1` (stereo not given): -1.77%; `CS(=O)(=O)NC1CCN(C(=O)CCC2CCCO2)CC1` (stereo not given): -0.0133%.
On to `Brc1ccc(NCCCOC2CCOCC2)nc1`, for which the cytotoxicity at 70.5 h was -1.01%.
Next, `CCOc1ccc(N(C)Cc2nc(C)c(C)o2)cc1`: 15.3%.
Regarding `CCOc1ccc(N(C)Cc2nnc(C3CC3)o2)cc1`, the cytotoxicity at 70.5 h is -2.24%.
Next, `CCN(CCNS(=O)(=O)C1CCOCC1)C(=O)OC(C)(C)C`: -5.67%; `CN(Cc1ccc(C#N)cc1)C(=O)c1ccn(C)c(=O)c1`: -9.77%.
With `Cc1cc(C(=O)NC(C)Cc2ccccc2Cl)n(C)n1` (stereo not given) the figure was -7.08%; with `CN(C)CCN(Cc1ccc(C#N)cc1)C(=O)c1ccn(C)c(=O)c1`, 24.8%.
Regarding `COCCOc1cccc(CNCc2ccc(-n3cncn3)nc2)c1`, the cytotoxicity at 70.5 h is -4.01%.
In the case of `CC(C)(C)OC(=O)N(CCNS(=O)(=O)N1CCOCC1)C1CC1`, the cytotoxicity at 70.5 h is -3.4%.
With `COc1c(C)cnc(CN2CCn3c(C)nnc3C2)c1C` the figure was -3.41%; with `COC(=O)CNC(=O)c1ccn(-c2ccc(Cl)c(Cl)c2)n1`, -2.3%; with `CNC(=O)COC(=O)c1ccn(-c2ccc(Cl)c(Cl)c2)n1`, 24.2%.
Take `COc1c(C)cnc(CN2CCn3c(nnc3C(C)C)C2)c1C`: the cytotoxicity at 70.5 h is -1.82%.
With `CS(=O)(=O)NC(=O)c1ccn(-c2ccccc2Cl)n1` the figure was -1.86%; with `Cc1ncc(CNC(=O)NCC(C)Oc2ccccc2F)s1` (stereo not given), -3.22%.
For the compound `Cc1ncc(CNC(=O)NCc2c(F)cccc2OC(F)F)s1`, the cytotoxicity at 70.5 h is -0.321%.
Consider `O=C(Nc1ccc(-c2csnn2)cc1)NC(CCO)C1CC1` (stereo not given), for which the cytotoxicity at 70.5 h worked out at 18%.
With `CNS(=O)(=O)CC(=O)N1CCC(c2cc3ccccc3[nH]2)CC1` the figure was 1.33%; with `O=C(NCc1ccon1)Nc1cc(F)ccc1N1CCCCC1`, 0.987%.
`COC(=O)c1ncccc1N1CCCC1`: the cytotoxicity at 70.5 h was -2.82%.
Next, `CS(=O)(=O)NC(=O)c1ccn(-c2ccc(Cl)c(Cl)c2)n1`: -3.09%; `CCS(=O)(=O)NCC(=O)N1CCC(c2cc3ccccc3[nH]2)CC1`: 1.52%; `CN1CCN(c2ccc(F)cc2NC(=O)NCc2ccon2)CC1`: 0.112%.
In the case of `O=S(=O)(NC1CCCOC1)c1ccc(C(F)(F)F)nc1` (stereo not given), the cytotoxicity at 70.5 h was -1.78%.
As to `CC(O)c1cccc(OCc2ccon2)c1` (stereo not given), the cytotoxicity at 70.5 h was -2.61%.
Next, `CN(Cc1nnnn1C1CC1)CC1COc2ccccc2O1` (stereo not given): -0.558%; `CN(C)CCN(Cc1ccc(F)cc1)C(=O)c1ccn(C)c(=O)c1`: -5.2%.
With `COC(=O)c1cccc(C(=O)N(CCC#N)CC(C)(C)C)c1` the figure was 1.22%.
With `c1ccc(N2CCC(OCC3CCCCO3)CC2)nc1` (stereo not given) the figure was 0.314%; with `Clc1ccc(N2CCC(OCC3CCCCO3)CC2)nc1` (stereo not given), -1.36%; with `CC(C)n1cnnc1SCCN(C)c1ccccc1`, -6.85%.
`CCCOc1cccc(OCc2ccon2)c1`: the cytotoxicity at 70.5 h was -7.15%.
Turning to `COCCN(C)C(C)Cc1ccccc1OC` (stereo not given), the cytotoxicity at 70.5 h is -11.8%.
Next, `CN1CCCC(c2cncc(C(=O)NCc3ccccc3Cl)n2)C1` (stereo not given): -7.68%.
